Results published in patent US7332480B2, “Compositions for the regulation of cytokine activity” (Yeda Research and Development Co. Ltd., priority 1992, dated 2008).

Tests used:
[1] = system: adjuvant arthritis; test: Adjuvant arthritis (AA) in rats; type: in vivo, Lewis rats
[2] = system: experimental DTH reaction in mice; test: In vivo bioassay of inhibition of experimental DTH reactivity (oxazolone, ear swelling); design: key to effect on DTH (printed in the Dose column): “N.E.” indicates that no effect was observed at the tested dosage range of 0.000004-4 μg/gm mouse; conditions: for DTH / effective dose range for inhibition ≧50% of control: CD1 mice; for effective dose range for inhibition ≧50% of control: Table XXIIIC footnotes, DTH; for effect on DTH (printed in the Dose column): tested dosage range of 0.000004-4 μg/gm mouse s.c.
Procedure: Groups of inbred BALB/c (Jackson Laboratories, Bar Harbor, Me.) or of outbred CD1 (Weizmann Institute Animal Breeding Center, Rehovot, Israel) mice are sensitized on the shaved abdominal skin with 100 μl of 2% oxazolone (OX) in acetone/olive oil (4/1, v/v) applied topically. DTH sensitivity is elicited 5 days later as follows: mice are challenged with 20 μl of 0.5% OX (10 μl administered topically to each side of the ear) in acetone/olive oil. A constant area of the ear is measured immediately before challenge and 24 and 48 h later with a Mitutoyo engineer's micrometer. The individual measuring ear swelling is blinded to the identity of the groups of mice. The increment (Δ) of ear swelling is expressed as the mean in units of 10^−2 mm or 10^−4 inch (+SE) depending on the micrometer that is used. Percent inhibition is calculated as follows: […]
Mice are treated with LMWH again Example 5.1, injected the day before primary sensitization to OX. On the fifth day after sensitization to OX, the 10 mice are challenged to induce a DTH reaction, as described above.
The positive control is the DTH reaction elicited in immunized mice in the absence of treatment with LMWH. The negative control is the background swelling produced by the antigen in naive (non-immunized) mice. […]
BALB/c mice (at least 5 mice per group) were sensitized on the shaved abdomen with 3% 4-ethoxymethylene-2-phenyl oxazolone (OX; BDH-Chemicals, GB) in acetone/olive oil applied topically. DTH sensitivity was elicited 5 days later as follows. Mice were challenged with 0.5% OX in acetone/olive oil. The ear was measured immediately before challenge and 24 h later with Mitutoyo engineer's micrometer (Japan). The individual measuring the swelling of the ear was blinded to the identity of the groups of mice. To interfere with DTH response, the low molecular weight immuno-regulatory fractions, diluted in PBS, were administrated subcutaneously into the back of the treated mice at the indicated time schedules and concentrations. Treated mice were inspected during and after (>2 months) the treatment and no major side-effects were observed clinically.
In particular, CD1 mice (available from the Weizmann Institute Animal Breeding Center, Rehovot, Israel), 4-12 mice per group were treated as described in Section 5.2 or 6.8.

[3] = system: mortality after irradiation; test: Radioprotective effects in gamma-irradiated mice; type: in vivo, BALB/c mice; conditions: 750 rads; three administrations; 300 ng H-9392, 1 μg glucosamine
Procedure: Groups of female BALB/c mice, 8 weeks old, 5-10 mice per group, were injected subcutaneously with either saline (0.1 ml, control), H-9392 (30 ng/mouse), or glucosamine (10,000 ng/mouse) 1 day before irradiation, and weekly thereafter until termination of the experiment on day 30. All the mice were irradiated to a dose of 700 rads using a ^60Co gamma radiation source.
The mortality within the different groups of mice was then scored over a 30 day period. […] The group of mice which had been injected with glucosamine also fared better than the control group, showing a 20% mortality rate in the same period.
In a separate experiment, groups of BALB/c mice (5 mice to a group) were likewise exposed to 750 rads of gamma-rays, except that these groups of mice were treated with test substances (saline at 0.1 ml per mouse; H-9392 at 0.3, 3, 30 and 300 ng/mouse; and glucosamine at 1, 10 and 100 μg/mouse) on the day before irradiation, on the sixth day after irradiation, and once again on the thirteenth day after irradiation only. All treatment ceased after the third and last administration.

[4] = system: IDDM of NOD mice; test: Insulin dependent diabetes mellitus (IDDM) of NOD mice; type: in vivo; conditions: H-9392 30 ng, glucosamine 10,000 ng; all the control mice had died (FIG. 41A)
[5] = system: LPS-induced inflammation of the cornea; test: LPS-induced inflammation of the rat cornea; type: in vivo, Lewis rats
Procedure: LPS-induced inflammation of the cornea is TNF dependent, as shown by the work of Vanderhagen, C. and co-workers in the Netherlands, “Kinetics of Intraocular TNF and IL-6 in Endotoxin-Induced Uveitis in the Rat,” submitted for publication. Using a 30-gauge needle, LPS (5 ng) was injected into the cornea of Lewis rats. After one day, separate groups of rats, 2 to a group (or 4 eyes to a group) were then injected subcutaneously with phosphate-buffered saline (0.05 ml) or H-1020 (at a dose of either 50 ng/rat or 200 ng/rat). The effects, if any, were scored as follows:
in which the sum of the points is used as the total score.

[6] = system: secretion of active TNF-α by activated human CD4+ T cells; test: Bioassay of TNF-α activity using human CD4+ T cells derived from PBLs (human PBL bioassay); type: cell-based; conditions: for Bioassay of TNF Activity: Table XXIII, conc range of 1 μg/ml-0.01 pg/ml, inconsistent = same result not obtained for all three bioassays; for “R” value: no effect, zero assigned
Source text: Non adherent cells were eluted and washed.
Nophar, Y. et al. J. Immunol. (1988) 140 (10):3456-3460.

[7] = Table XXIIIA, no effect, zero assigned

Which “effect on AA” value ([1]; different dosages, s.c. weekly (FIG. 38C)) does the source give for `N[C@H]1C(O)O[C@H](CO)[C@H](O)[C@@H]1O` (stereo partly drawn) [GalN, D-Galactosamine, reference compound] here?
Its value is “inhibitory effects but to a much lesser degree”.

What about the DTH ([2]; Table XXIIIC, 0.00004 μg/gm s.c., control 18.9 ± 0.7) of the same compound?
Its DTH is 8.9 ± 0.6 10^−2 mm.

And the DTH ([2]; Table XXIIIC, 0.12 μg/gm s.c., control 18.9 ± 0.7)?
Its DTH is 6.5 ± 0.7 10^−2 mm.

With `N[C@@H](C=O)[C@@H](O)[C@H](O)[C@H](O)CO` [GlcN, 2-amino-2-deoxy-D-glucose, reference compound] as the compound, how does the “activity in suppressing mortality after irradiation” value [3] read?
Its value is “moderate activity”.

What about the DTH ([2]; Table XXIIIC, 0.000012 μg/gm s.c., control 19.7 ± 1.2) of the same compound?
Its DTH is 5 ± 0.7 10^−2 mm.

What about the DTH ([2]; Table XXIIIC, 0.4 μg/gm s.c., control 19.7 ± 1.2) of the same compound?
The DTH was 2.3 ± 0.9 10^−2 mm.

What about the “mice died by age 5 months” value [4] of the same compound?
The value was “about half”.

With `O=S(=O)(O)N[C@H]1C(O)O[C@H](CO)[C@@H](O)[C@@H]1OS(=O)(=O)O` (stereo partly drawn) [GlcN-2, 3S, D-Glucosamine-2,3-disulfate, reference compound] as the compound, how does the “effective dose range for inhibition ≧50% of control” value ([2]; s.c.) read?
Its value is “narrow”.

Which “effective dose range for inhibition ≧50% of control” value ([2]; s.c.) does the source give for `O=S(=O)(O)N[C@H]1C(O)O[C@H](COS(=O)(=O)O)[C@@H](O)[C@@H]1O` (stereo partly drawn) [GlcN-2, 6S, D-Glucosamine-2,6-disulfate, reference compound] here?
The value was “narrow”.

How did the ““R” value” ([2]; Table XXIIIC, no effect, zero assigned) turn out when `O=S(=O)(O)N[C@H]1C(O)O[C@H](CO)[C@@H](O)[C@@H]1O` (stereo partly drawn) [GlcN-2S, D-Glucosamine-2-N-sulfate, reference compound] was run?
The value was 0 % × (μg/gm)^−1.

What about the “effect on DTH (printed in the Dose column)” value (“effect on DTH” below) ([2]; Table XXIIIC) of the same compound?
Its value is “N.E”.

Which “effect on DTH” value ([2]; Table XXIIIC) does the source give for `N[C@H]1C(O)O[C@H](CO)[C@@H](O)[C@@H]1OS(=O)(=O)O` (stereo partly drawn) [GlcN-3S, D-Glucosamine-3-sulfate, reference compound] here?
Its value is “N.E”.

How did the “effect on DTH” value ([2]; Table XXIIIC) turn out when `N[C@H]1C(O)O[C@H](COS(=O)(=O)O)[C@@H](O)[C@@H]1O` (stereo partly drawn) [GlcN-6S, D-Glucosamine-6-sulfate, reference compound] was run?
The value was “N.E”.

Which results are given for `O=C(O)C1=C[C@H](O)[C@@H](O)[C@H](O[C@H]2[C@H](O)[C@@H](NS(=O)(=O)O)C(O)O[C@@H]2COS(=O)(=O)O)O1` (stereo partly drawn) [H-1020, 4-deoxy-4-en-iduronic acid-(α-1,4)-2-deoxy-2-N-sulfate-6-O-sulfateglucosamine]?
effect on local LPS-induced inflammation relative to control ([5]; 50 ng/rat s.c. (FIG. 39)): effective to suppress; effect on local LPS-induced inflammation relative to control ([5]; 200 ng/rat s.c. (FIG. 39)): failed to provide a significant effect

With `O=C(O)C1=C[C@H](O)[C@@H](O)[C@H](O[C@H]2[C@H](O)[C@@H](NS(=O)(=O)O)C(O)O[C@@H]2CO)O1` (stereo partly drawn) [H-1145, 4-deoxy-4-en-iduronic acid-(α-1,4)-2-deoxy-2-N-sulfateglucosamine] as the compound, how does the ““R” value” [2, 7] read?
The value was 0 % × (μg/gm)^−1.

What about the “effect on DTH” value ([2]; Table XXIIIA) of the same compound?
Its value is “N.E”.

How did the ““R” value” [2, 7] turn out when `CC(=O)NC1C(O)OC(COS(=O)(=O)O)C(OC2OC(C(=O)O)=CC(O)C2O)C1O` (stereo not drawn) [H-8642, 4-deoxy-4-en-iduronic acid-(α-1,4)-2-deoxy-2-N-acetyl-6-O-sulfateglucosamine] was run?
The value was 0 % × (μg/gm)^−1.

And the “effect on DTH” value ([2]; Table XXIIIA)?
The value was “N.E”.

And the “Bioassay of TNF Activity” value [6]?
Its value is “Inconsistent”.

How did the ““R” value” [2, 7] turn out when `CC(=O)N[C@H]1C(O)O[C@H](CO)[C@@H](O[C@@H]2OC(C(=O)O)=C[C@H](O)[C@H]2OS(=O)(=O)O)[C@@H]1O` (stereo partly drawn) [H-8767, 2-O-sulfate-4-deoxy-4-en-iduronic acid-(α-1,4)-2-deoxy-2-N-acetylglucosamine] was run?
Its value is 0 % × (μg/gm)^−1.

What about the “effect on DTH” value ([2]; Table XXIIIA) of the same compound?
Its value is “N.E”.

And the “Bioassay of TNF Activity” value [6]?
The value was “Inconsistent”.

How did the ““R” value” [2, 7] turn out when `NC1C(O)OC(COS(=O)(=O)O)C(OC2OC(C(=O)O)=CC(O)C2OS(=O)(=O)O)C1O` (stereo not drawn) [H-8892, 2-O-sulfate-4-deoxy-4-en-iduronic acid-(α-1,4)-2-deoxy-6-O-sulfateglucosamine] was run?
The value was 0 % × (μg/gm)^−1.

And the “effect on DTH” value ([2]; Table XXIIIA)?
Its value is “N.E”.

What about the “Bioassay of TNF Activity” value [6] of the same compound?
Its value is “No effect”.

What about the ““R” value” [6] of the same compound?
The value was 0 % × (pg/ml)^−1.

With `N[C@H]1C(O)O[C@H](COS(=O)(=O)O)[C@@H](O[C@@H]2OC(C(=O)O)=C[C@H](O)[C@H]2O)[C@@H]1O` (stereo partly drawn) [H-9017, 4-Deoxy-4-en-iduronic acid-(α-1,4)-2-deoxy-6-O-sulfateglucosamine] as the compound, how does the ““R” value” [2, 7] read?
Its value is 0 % × (μg/gm)^−1.

And the “effect on DTH” value ([2]; Table XXIIIA)?
Its value is “N.E”.

And the “Bioassay of TNF Activity” value [6]?
The value was “No effect”.

What about the ““R” value” [6] of the same compound?
The value was 0 % × (pg/ml)^−1.

Which results are given for `N[C@H]1C(O)O[C@H](CO)[C@@H](O[C@@H]2OC(C(=O)O)=C[C@H](O)[C@H]2OS(=O)(=O)O)[C@@H]1O` (stereo partly drawn) [H-9142, 2-O-sulfate-4-deoxy-4-en-iduronic acid-(α-1,4)-2-deoxyglucosamine]?
“R” value [2, 7]: 0 % × (μg/gm)^−1; effect on DTH (printed in the Dose column) ([2]; Table XXIIIA): N.E.; Bioassay of TNF Activity [6]: Inconsistent

How did the ““R” value” ([2]; Table XXIIIA, inhibition of DTH, s.c.) turn out when `O=C(O)C1=C[C@H](O)[C@@H](OS(=O)(=O)O)[C@H](O[C@H]2[C@H](O)[C@@H](NS(=O)(=O)O)C(O)O[C@@H]2COS(=O)(=O)O)O1` (stereo partly drawn) [H-9267, 2-O-sulfate-4-deoxy-4-en-iduronic acid-(α-1,4)-2-deoxy-2-N-sulfate-6-O-sulfateglucosamine] was run?
Its value is 1.60 × 10^5 % × (μg/gm)^−1.

What about the “Bioassay of TNF Activity” value [6] of the same compound?
The value was “Inconsistent”.

For `CC(=O)N[C@H]1C(O)O[C@H](COS(=O)(=O)O)[C@@H](O[C@@H]2OC(C(=O)O)=C[C@H](O)[C@H]2OS(=O)(=O)O)[C@@H]1O` (stereo partly drawn) [H-9517, 2-O-sulfate-4-deoxy-4-en-iduronic acid-(α-1,4)-2-deoxy-2-N-acetyl-6-O-sulfateglucosamine], which “Bioassay of TNF Activity” value [6] is on record?
The value was “Inconsistent^c”.

Which “effect on DTH” value ([2]; Table XXIIIC) does the source give for `CC(=O)N[C@H]1C(O)O[C@H](CO)[C@@H](O)[C@@H]1O` (stereo partly shown) [NAc-GlcN, N-Acetylglucosamine, reference compound] here?
The value was “N.E”.

With `C[C@@H]1C[C@H]2[C@@H]3CCC4=CC(=O)C=C[C@]4(C)[C@@]3(F)[C@@H](O)C[C@]2(C)[C@@]1(O)C(=O)COP(=O)(O)O` [dexamethasone phosphate, reference compound] as the compound, how does the “course of AA after treatment was ended” value ([1]; treatment from day 12, dexamethasone phosphate daily or weekly, disaccharide weekly) read?
The value was “suffered a relapse”.

And the “severity of the AA score at 30 days post-induction” value ([1]; weekly s.c. from day 12, dexamethasone phosphate 100 μg or disaccharide 120 ng per rat (FIG. 38G))?
The value was “only a moderate reduction in the severity of the AA score”.
